Common to all, as to format: cell-based
In one experiment the test system is ovarian cancer cell. The experiment can be described thus: Activity against ovarian cancer cells. The note with it: ovarian cancer cell growth; Tables 18A-18C. As for the experimental part: (§1) Antitumor activity of the compounds and doxorubicin as a positive control was assessed by using the CellTiter-Blue Cell Viability Assay (Promega, #G8082) or CellTiter-Glow® Luminescent Cell Viability assay (Promega #G7572) according to the manufacturer's instructions. The compounds were tested at 5 or 6 concentrations in half-log increments (highest concentration 30 μM or 100 μM) in duplicate or triplicate well conditions.
(§2) Tumor cells were grown at 37° C. in a humidified atmosphere with 5% CO2 in RPMI 1640 or DMEM medium, supplemented with 10% (v/v) fetal calf serum and 50 μg/ml gentamicin for up to 20 passages, and were passaged once or twice weekly. Cells were harvested using TrypLE or PBS buffer containing 1 mM EDTA, and the percentage of viable cells is determined using a CASY Model TI cell counter (OMNI Life Science). Cells were harvested from exponential phase cultures, counted and plated in 96 well flat-bottom microtiter plates at a cell density depending on the cell line's growth rate (4,000-20,000 cells/well depending on the cell line's growth rate, up to 60,000 for hematological cancer cell lines) in RPMI 1640 or DMEM medium supplemented with 10% (v/v) fetal calf serum and 50 μg/ml gentamicin (140 μl/well). Cultures were incubated at 37° C. and 5% CO2 in a humidified atmosphere. After 24 h, 10 μl of test compounds or control medium were added, and left on the cells for another 72 h. Compounds were serially diluted in DMSO, transferred in cell culture medium, and added to the assay plates. The DMSO concentration was kept constant at <0.3% v/v across the assay plate. Viability of cells was quantified by the CellTiter-Blue® cell viability assay (Promega G8081) or CellTiter-Glow® Luminescent Cell Viability assay (Promega #G7572). Fluorescence (FU) was measured by using the EnSpire® multimode plate reader (Perkin Elmer) (excitation X=570 nm, emission λ=600 nm). Luminescence was measured with a microplate luminometer (Promega or PerkinElmer).
(§3) Sigmoidal concentration-response curves were fitted to the data points (test-versus-control, T/C values) obtained for each tumor model using 4 parameter non-linear curve fit (Charles River DRS Datawarehouse Software) or with GraphPad prism 5.02 software. IC50 values are reported as absolute IC50 values, being the concentration of test compound at the intersection of the concentration-response curves with T/C=50% Cell lines tested are presented in Table 1.

The test system of a further experiment is PC-3. Kind of experiment: Cell viability assay (CellTiter-Blue/CellTiter-Glow). The note with it: Homo sapiens; prostate carcinoma cell line PC-3; absolute IC50; 72 h. As for the experimental part:
as §1, §2, §3
For orientation: Alamar Blue is a resazurin reagent that responds to reducing activity.

For another experiment, the system named is HCT-116. The experiment is described as above. The note with it: Homo sapiens; colon carcinoma cell line HCT-116; absolute IC50; 72 h. As for the experimental part:
as §1, §2, §3

For the next experiment, the system named is MDA-MB-468. Described as above. The note with it: Homo sapiens; breast carcinoma cell line MDA-MB-468; absolute IC50; 72 h. The protocol: as §1, §2, §3
Another experiment relates to LNCaP. The experiment is described as above. To be noted: Homo sapiens; prostate carcinoma cell line LNCaP; absolute IC50; 72 h. As for the experimental part: as §1, §2, §3
Another experiment has as its system HL-60. The description is as above. The note with it: Homo sapiens; leukaemia cell line HL-60; absolute IC50; 72 h. As for the experimental part:
as §1, §2, §3

In a further experiment the test system is 22Rv1. The description is as above. To be noted: Homo sapiens; prostate carcinoma cell line 22Rv1; absolute IC50; 72 h. The protocol:
as §1, §2, §3

In another experiment the test system is MCF-7. The description is as above. To be noted: Homo sapiens, MCF7; breast carcinoma cell line MCF-7; absolute IC50; 72 h. As for the experimental part: as §1, §2, §3
The next experiment has as its system LoVo. The experiment is described as above. The note with it: Homo sapiens; colon carcinoma cell line LoVo; absolute IC50; 72 h. The protocol: as §1, §2, §3
A further experiment deals with prostate cancer cell. The experiment can be described thus: Activity against prostate cancer cells. To be noted: prostate cancer cell growth; text summary of Table 21. As for the experimental part:
as §1, §2, §3

The subject of another experiment is colon cancer cell. The experiment can be described thus: Activity against colon cancer cells. The note with it: colon cancer cell growth; summary of Tables 7A-7D. The protocol: as §1, §2, §3
A further experiment has as its system leukaemia cell. The experiment can be described thus: Activity against leukaemia cells. To be noted: leukaemia cell growth; Tables 13A and 13B. The protocol: as §1, §2, §3
Another experiment relates to breast cancer cell. The experiment can be described thus: Activity against breast cancer cells. To be noted: breast cancer cell growth; Tables 5A and B. The protocol: as §1, §2, §3
The subject of a further experiment is brain cancer cell. The experiment can be described thus: Activity against brain cancer cells. The note with it: brain cancer cell growth; Tables 4A-4D. The protocol:
as §1, §2, §3

A further experiment relates to pancreatic cancer cell. The experiment can be described thus: Activity against pancreatic cancer cells. To be noted: pancreatic cancer cell growth; Table 19A. The protocol:
as §1, §2, §3

Another experiment deals with esophagus PDX. Kind of experiment: Activity against esophagus PDX. To be noted: esophagus PDX growth; summary of Table 10. As for the experimental part: (§4) PDX-derived cell cultures were obtained from tumors explanted from mice and isolated by mechanical and enzymatic dissociation. […] Cells were harvested and seeded in 96-wells plates at a density of 1.25 to 5×10^3 cells/well for cytotoxicity assays. Cells were incubated 48 h at 37° C. prior to addition of test molecules and vehicle (DMSO, 0.1%) at desired final concentrations. Cell viability was assessed before drugs' addition (To) and 5 days after test molecules addition by measuring ATP cell content using CellTiter-Glo® Luminescent Cell Viability Assay (Promega) according to the manufacturer's instructions. Luciferase activity was measured on a luminometer (PerkinElmer® EnVision™). Each concentration of compounds was tested in triplicate.
(§5) Viability was calculated as a percentage of ATP value compared to vehicle treated controls.
(§6) For PDX primary cell cultures, the tumour tissue was washed with PBS containing antibiotic-antimycotic and non-tumour tissue and necrotic tumour tissues were separated. The tumour tissue was transferred to a new dish and cut into 1-2 mm^3 fragments, resuspended in RPMI-1640 medium and centrifuged at 1,200 rpm for 6 min at room temperature. The pelleted material was resuspended with 15 mL of Tumour Cell Digestion Solution and incubated at 37° C. for 1 hour with agitation. Following further addition of media, centrifugation and passage through a […] cell strainer, the homogenous cell mixture was layered onto 15 mL of Ficoll-Paque PLUS in a 50 mL conical tube and centrifuged for 15 min at 1,600 rpm. The interface cells were collected, washed with media, separated by centrifugation at 1,200 rpm. The cell pellet was resuspended in serum free media supplemented with growth factors. 10,000 cells/wells were plated in a 96 well plate and incubated at 37° C., 5% CO2, 95% air and 100% relative humidity overnight. The cytotoxicity assay was conducted as above. IC50 values represent absolute IC50.

In a further experiment the test system is kidney PDX. The experiment can be described thus: Activity against kidney PDX. The note with it: kidney PDX growth; summary of Table 12. As for the experimental part: as §4, §5, §6
The next experiment deals with endometrial PDX. The experiment can be described thus: Activity against endometrial PDX. To be noted: endometrial PDX growth; text summary of Table 9. The protocol:
as §4, §5, §6

Regarding `O=c1cc(-c2ccc(CCCC[P+](c3ccccc3)(c3ccccc3)c3ccccc3)cc2)oc2c(O)c(O)ccc12` [SND118, 4-[4-(7,8-dihydroxy-4-oxo-chromen-2-yl)phenyl]butyltriphenyl-phosphonium bromide], the IC50 in the experiment with ovarian cancer cell is < 20 µM; with PC-3, 5.3 µM; in the experiment on HCT-116, 1.53 µM; in the experiment with MDA-MB-468, 0.32 µM; with LNCaP, 1.87 µM; in the experiment on HL-60, 0.29 µM. Further, the IC50 with 22Rv1 was 5.1 µM; with MCF-7, 0.86 µM; with LoVo, 7.9 µM; in the experiment with prostate cancer cell it was < 10 µM; in the experiment on colon cancer cell, < 20 µM; in the experiment with leukaemia cell, < 20 µM. Besides, the IC50 in the experiment with breast cancer cell, in the experiment with brain cancer cell and in the experiment on pancreatic cancer cell was < 20 µM in each case.
For the molecule `O=c1cc(-c2ccc(CCCC[P+](c3ccccc3)(c3ccccc3)c3ccccc3)cc2)oc2c3c(ccc12)OCO3.[Br-]` [SND123, 4-[4-(6-oxo-[1,3]dioxolo[4,5-h]chromen-8-yl)phenyl]butyl-triphenylphosphonium bromide], the IC50 is < 20 µM in the experiment on ovarian cancer cell; 1.89 µM with PC-3; 2.25 µM in the experiment with HCT-116; 0.36 µM in the experiment with MDA-MB-468; 1.37 µM in the experiment with LNCaP; 1.08 µM with HL-60. For the same molecule, the IC50 with 22Rv1 is 1.49 µM; with MCF-7, 6.87 µM; with LoVo, 1.7 µM; in the experiment on prostate cancer cell it was < 10 µM; in the experiment with colon cancer cell it was < 20 µM; in the experiment on esophagus PDX, < 20 µM. Further, the IC50 in the experiment with leukaemia cell, in the experiment on kidney PDX, in the experiment on breast cancer cell, in the experiment with brain cancer cell, in the experiment with pancreatic cancer cell and in the experiment with endometrial PDX was < 20 µM each time.
With `CCNC(=O)Oc1ccc2c(=O)cc(-c3ccc(CCCC[P+](c4ccccc4)(c4ccccc4)c4ccccc4)cc3)oc2c1OC(=O)NCC.[Br-]` [SND124, 4-[4-[7,8-Bis(ethylcarbamoyloxy)-4-oxo-chromen-2-yl]phenyl]-butyltriphenylphosphonium bromide], the IC50 in the experiment with ovarian cancer cell is < 20 µM; in the experiment on PC-3, 6.3 µM; in the experiment on HCT-116, 4.2 µM; in the experiment with MDA-MB-468 it was 0.5 µM; in the experiment on LNCaP it was 4 µM; with HL-60, 0.29 µM. Further, the IC50 in the experiment on 22Rv1 was 3.4 µM; in the experiment on MCF-7, 2 µM; with LoVo, 21.4 µM; with prostate cancer cell, < 10 µM; with colon cancer cell it was < 20 µM; in the experiment with esophagus PDX, < 20 µM. The IC50 with leukaemia cell, with kidney PDX, in the experiment on breast cancer cell, with brain cancer cell, with pancreatic cancer cell and with endometrial PDX was < 20 µM in each case.
On to `CCNC(=O)Oc1ccc2c(=O)cc(-c3ccc(CCCC[P+](c4ccccc4)(c4ccccc4)c4ccccc4)cc3)oc2c1O.[Br-]` [SND126A, 4-[4-[7-(Ethylcarbamoyloxy)-8-hydroxy-4-oxo-chromen-2-yl]phenyl]butyltriphenylphosphonium bromide], for which the IC50 in the experiment with ovarian cancer cell is < 20 µM; in the experiment on PC-3, 2.91 µM; with HCT-116 it was 3.56 µM; in the experiment on MDA-MB-468, 0.56 µM; in the experiment with LNCaP, 1.95 µM; with HL-60 it was 0.58 µM. The IC50 in the experiment with 22Rv1 was 2.39 µM; in the experiment with MCF-7, 12.9 µM; in the experiment on LoVo it was 2.94 µM; in the experiment with prostate cancer cell, < 10 µM; in the experiment on colon cancer cell, < 20 µM; with esophagus PDX, < 20 µM. The concentration for half-maximal inhibition (IC50) in the experiment on leukaemia cell, in the experiment on kidney PDX, with breast cancer cell, with brain cancer cell, in the experiment with pancreatic cancer cell and with endometrial PDX was < 20 µM in each case.
`CC(C)NC(=O)Oc1ccc2c(=O)cc(-c3ccc(CCCC[P+](c4ccccc4)(c4ccccc4)c4ccccc4)cc3)oc2c1O` [SND127, 4-[4-[7-(Isopropylcarbamoyloxy)-8-hydroxy-4-oxo-chromen-2-yl]phenyl]butyltriphenylphosphonium bromide]: the IC50 with ovarian cancer cell was < 20 µM; in the experiment with PC-3, 5.5 µM; with HCT-116, 6.2 µM; in the experiment on MDA-MB-468, 0.6 µM; in the experiment on LNCaP, 2 µM; in the experiment with HL-60, 1.54 µM. Further, the IC50 in the experiment on 22Rv1 is 3.3 µM; with MCF-7, 6.7 µM; in the experiment with LoVo, 8.4 µM; in the experiment with prostate cancer cell it was < 10 µM; in the experiment with colon cancer cell, < 20 µM; with leukaemia cell, < 20 µM. Further, the IC50 in the experiment with breast cancer cell, in the experiment on brain cancer cell and in the experiment on pancreatic cancer cell was < 20 µM throughout.
As for `COc1c(O)ccc2c(=O)cc(-c3ccc(CCCC[P+](c4ccccc4)(c4ccccc4)c4ccccc4)cc3)oc12.[Br-]` [SND140, (4-(4-(7-hydroxy-8-methoxy-4-oxo-4H-chromen-2-yl)phenyl)butyl)triphenylphosphonium bromide], the IC50 in the experiment on ovarian cancer cell is < 20 µM; in the experiment with PC-3 it was 8.31 µM; with HCT-116, 10.6 µM; in the experiment on MDA-MB-468, 2.8 µM; in the experiment with LNCaP, 6.23 µM; in the experiment with HL-60, 0.9 µM. The IC50 in the experiment on 22Rv1 is 9 µM; in the experiment on MCF-7 it was 4.3 µM; with LoVo, 16.3 µM; with prostate cancer cell it was < 10 µM; with colon cancer cell, < 20 µM; in the experiment with esophagus PDX it was < 20 µM. The IC50 in the experiment with leukaemia cell, in the experiment with kidney PDX, in the experiment with breast cancer cell, in the experiment with brain cancer cell, in the experiment on pancreatic cancer cell and in the experiment on endometrial PDX was < 20 µM each time.

The IC50 is the point on the concentration scale where inhibition reaches its midpoint.

The record behind these values is patent US20240209011A1, “HETEROAROMATIC PHOSPHONIUM SALTS FOR TREATING CANCER” (FLORATEK PHARMA S.A., priority 2021, published 2024).
